The source of these data is patent US12661358B2, “Purine derivatives as drugs for the treatment of neonatal hypoxia-ischemia brain injury and related diseases” (COMMISSARIAT A L'ENERGIE ATOMIQUE ET AUX ENERGIES …, priority 2020, dated 2026).

For data set [1] the following is noted: as demonstrated in WO2018/189122; cited from earlier work.
The subject of data set [2] is primary rat cell-based BBB (blood-brain barrier) model. Description: Permeability of 14C-sucrose on primary rat cell-based BBB model after LPS challenge. Conditions: LPS 10 ng/mL; compound at 0.1 μM and 1 μM; figure axis in 10^−6 cm·s^−1. As to the method: FIG. 2A: The permeability of radiolabelled sucrose, a permeability marker, was studied on a primary rat cell-based BBB (blood-brain barrier) model after lipopolysaccharide (LPS) challenge.
First graph (left): y-axis: permeability of ^14C-sucrose through the BBB (10^−6 cm·s^−1); x-axis (from left to right): BBB control (negative control); BBB+LPS (10 ng/mL) (positive control); BBB+Compound 13 (0.1 μM); BBB+LPS+Compound 13 (0.1 μM); BBB+Compound 13 (1 μM); BBB+LPS+Compound 13 (1 μM).
Second graph (right): y-axis: permeability of ^14C-sucrose through the BBB (10^−6 cm·s^−1); x-axis (from left to right): BBB control (negative control); BBB+LPS (10 ng/mL) (positive control); BBB+Aftin-5 (0.1 μM); BBB+LPS+Aftin-5 (0.1 μM); BBB+Aftin-5 (1 μM); BBB+LPS+Aftin-5 (1 μM).
The permeability of radiolabelled sucrose (^14C-sucrose), a permeability marker, was studied on a primary rat cell-based BBB (blood-brain barrier) model. Permeability was measured in 10^−6 cm·s^−1. ^14C-sucrose is a small molecular weight marker of 342 Da that tends to reflect paracellular disruption.
To induce increased BBB permeability, lipopolysaccharide (LPS) was injected. LPS induces increased BBB permeability by stimulating formation and release of cytokines and other molecules.
Two different Aftin compounds were tested in this example: […]. […]

In data set [3] the test system is HI (Hypoxia-Ischemia) injury. Description: Rice-Vannucci neonatal HI model, infarct measurement. The format is in vivo, Wistar rats. Conditions: P7 rats, 30 mg/kg IP immediately after hypoxia, 24 h and 48 h; read 72 h after HI (P10); compared to HI+PL; males and females. From the text:
Subjects were Wistar rats born from time-mated dams obtain from Charles River Laboratory (Wilmington, […], USA).
Post-natal day 7 (P7) (CNS maturation corresponding to 32-34 weeks of gestation in human) rats were assigned to 3 groups: sham, HI+PL or HI+Compound 13.
In the sham group no hypoxia-ischemia was induced in the rats. This group served as a control group.
In the HI+PL group, where PL stands for placebo, hypoxia-ischemia was induced in the rats. The rats were then further administered a saline vehicle, which served as the placebo.
In the HI+Compound 13 group, hypoxia-ischemia was induced in the rats. The rats were then further administered a dose of Compound 13, which is a compound of formula (I) according to the invention.
The Rice-Vanucci method was used to induce the HI injury (Rice J E et al., 1981) in groups HI+PL and HI+Compound 13.
In summary, each animal from all three groups was anesthetized using 3-4% isoflurane and total absence of leg withdrawal reflexes was verified prior to proceeding to surgery. […]
The infarct was calculated as a percentage of the ratio of the damaged volume to the volume of the total contralateral hemisphere with correction for hemispheric edema, according to the following formula: infarct (%)=[1−(volume of total ipsilateral hemisphere−volume of infarct)/volume of total contralateral hemisphere)]×100%.

Molecules are shown by their SMILES.

In the case of `CC[C@H](CO)Nc1nc(N(C)c2ccccc2)c2ncn(C(C)C)c2n1` [Aftin-5, (2R)-2-[[9-isopropyl-6-(N-methylanilino)purin-2-yl]amino]butan-1-ol], in data set [1], the “ability to cross the BBB” value is recorded as “able to cross the BBB”. In addition, the “permeability of 14C-sucrose through the BBB under inflammatory stress” value in data set [2] was “statistically restored the permeability properties of the BBB”.

On to `CC[C@H](CO)Nc1nc(N(CC)Cc2ccccc2)c2ncn(C(C)C)c2n1` [Compound 13, (2R)-2-[[6-[benzyl(ethyl)amino]-9-isopropyl-purin-2-yl]amino]butan-1-ol], for which, in data set [3], the “infarct area / infarct volume of the hemisphere ipsilateral to HI injury” value was “statistically reduced”. In addition, in data set [2], the “permeability of 14C-sucrose through the BBB under inflammatory stress” value is listed as “statistically restored the permeability properties of the BBB”.
